Measured values as given in ChEMBL document CHEMBL3885861, “Open TG-GATES”.

Species: Rattus norvegicus
Experiment: Open TG-GATES - Regimen: Daily Repeat
Type: toxicity, organism-based, Sprague-Dawley
Set-up: regimen Daily Repeat, gender Male, age 6 weeks
Conditions: in vivo, po, 0 mg/kg, route gavage, dose level Control; for APTT / Bas / Eos / Fbg / Hb / Ht / Lym / MCH / MCHC / MCV / Mono / Neu / PT / Plat / RBC / Ret / WBC: tissue Blood; for KIDNEY_L / KIDNEY_R / KIDNEY_TOTAL: tissue Kidney; for LIVER: tissue Liver; for ALP / ALT / AST / BUN / CRE / Ca / DBIL / GLC / IP / K / LDH / Na / PL / RALB / TBIL / TC / TG / TP / gamma-GTP: tissue Plasma

CSc1ccc2c(c1)N(CCC1CCCCN1C)c1ccccc1S2 (stereo not drawn) [THIORIDAZINE]
TERMINAL_BW (72 h, time 3 day): 237.9 g
APTT (72 h, time 3 day): 16.6 s
Bas (72 h, time 3 day): 0%
Eos (72 h, time 3 day): 1%
Fbg (72 h, time 3 day): 215.2 mg/dL
Hb (72 h, time 3 day): 13.7 g/dL
Ht (72 h, time 3 day): 40.7%
Lym (72 h, time 3 day): 78%
MCH (72 h, time 3 day): 21.7 pg
MCHC (72 h, time 3 day): 33.7%
MCV (72 h, time 3 day): 64.4 fL
Mono (72 h, time 3 day): 8.4%
Neu (72 h, time 3 day): 13%
PT (72 h, time 3 day): 11.9 s
Plat (72 h, time 3 day): 107.7 x10_4/uL
RBC (72 h, time 3 day): 631.6 x10_4/ul
Ret (72 h, time 3 day): 8.1%
WBC (72 h, time 3 day): 120 x10_2/uL
KIDNEY_L (72 h, time 3 day): 1.1 g
KIDNEY_R (72 h, time 3 day): 1.1 g
KIDNEY_TOTAL (72 h, time 3 day): 2.2 g
LIVER (72 h, time 3 day): 12 g
ALP (72 h, time 3 day): 821.6 IU/L
ALT (72 h, time 3 day): 37 IU/L
AST (72 h, time 3 day): 63.8 IU/L
BUN (72 h, time 3 day): 16.6 mg/dL
CRE (72 h, time 3 day): 0.5 mg/dL
Ca (72 h, time 3 day): 11.1 mg/dL
DBIL (72 h, time 3 day): 0.034 mg/dL
GLC (72 h, time 3 day): 193.4 mg/dL
IP (72 h, time 3 day): 9.3 mg/dL
K (72 h, time 3 day): 5.2 meq/L
LDH (72 h, time 3 day): 95 IU/L
Na (72 h, time 3 day): 139.4 meq/L
PL (72 h, time 3 day): 159.6 mg/dL
RALB (72 h, time 3 day): 4.2 g/dL
TBIL (72 h, time 3 day): 0.4 mg/dL
TC (72 h, time 3 day): 87 mg/dL
TG (72 h, time 3 day): 88.2 mg/dL
TP (72 h, time 3 day): 6 g/dL
gamma-GTP (72 h, time 3 day): 1.2 IU/L
TERMINAL_BW ([…], time 7 day): 272.6 g
TERMINAL_BW ([…], time 14 day): 326.5 g
TERMINAL_BW ([…], time 28 day): 411.3 g
APTT ([…], time 7 day): 15.1 s
Bas ([…], time 7 day): 0%
Eos ([…], time 7 day): 0.6%
Fbg ([…], time 7 day): 241.2 mg/dL
Hb ([…], time 7 day): 13.9 g/dL
Ht ([…], time 7 day): 41.7%
Lym ([…], time 7 day): 83%
MCH ([…], time 7 day): 21.7 pg
MCHC ([…], time 7 day): 33.3%
MCV ([…], time 7 day): 65 fL
Mono ([…], time 7 day): 6.2%
Neu ([…], time 7 day): 10.2%
PT ([…], time 7 day): 11.6 s
Plat ([…], time 7 day): 100.8 x10_4/uL
RBC ([…], time 7 day): 642.4 x10_4/ul
Ret ([…], time 7 day): 5.4%
WBC ([…], time 7 day): 141.4 x10_2/uL
APTT ([…], time 14 day): 16.8 s
Bas ([…], time 14 day): 0%
Eos ([…], time 14 day): 0.6%
Fbg ([…], time 14 day): 243.4 mg/dL
Hb ([…], time 14 day): 14.4 g/dL
Ht ([…], time 14 day): 42.9%
Lym ([…], time 14 day): 78.4%
MCH ([…], time 14 day): 20.6 pg
MCHC ([…], time 14 day): 33.5%
MCV ([…], time 14 day): 61.5 fL
Mono ([…], time 14 day): 6.4%
Neu ([…], time 14 day): 14.6%
PT ([…], time 14 day): 11.5 s
Plat ([…], time 14 day): 106.3 x10_4/uL
RBC ([…], time 14 day): 697.6 x10_4/ul
Ret ([…], time 14 day): 4.5%
WBC ([…], time 14 day): 129.7 x10_2/uL
APTT ([…], time 28 day): 18.1 s
Bas ([…], time 28 day): 0%
Eos ([…], time 28 day): 0.6%
Fbg ([…], time 28 day): 234.6 mg/dL
Hb ([…], time 28 day): 15.2 g/dL
Ht ([…], time 28 day): 45.5%
Lym ([…], time 28 day): 83.4%
MCH ([…], time 28 day): 19.8 pg
MCHC ([…], time 28 day): 33.4%
MCV ([…], time 28 day): 59.2 fL
Mono ([…], time 28 day): 7.6%
Neu ([…], time 28 day): 8.2%
PT ([…], time 28 day): 11.8 s
Plat ([…], time 28 day): 98 x10_4/uL
RBC ([…], time 28 day): 769.4 x10_4/ul
Ret ([…], time 28 day): 3%
WBC ([…], time 28 day): 131.4 x10_2/uL
KIDNEY_L ([…], time 7 day): 1.2 g
KIDNEY_R ([…], time 7 day): 1.2 g
KIDNEY_TOTAL ([…], time 7 day): 2.4 g
KIDNEY_L ([…], time 14 day): 1.3 g
KIDNEY_R ([…], time 14 day): 1.3 g
KIDNEY_TOTAL ([…], time 14 day): 2.6 g
KIDNEY_L ([…], time 28 day): 1.5 g
KIDNEY_R ([…], time 28 day): 1.5 g
KIDNEY_TOTAL ([…], time 28 day): 2.9 g
LIVER ([…], time 7 day): 13.4 g
LIVER ([…], time 14 day): 15.6 g
LIVER ([…], time 28 day): 18.7 g
ALP ([…], time 7 day): 973 IU/L
ALT ([…], time 7 day): 32.4 IU/L
AST ([…], time 7 day): 65 IU/L
BUN ([…], time 7 day): 18.2 mg/dL
CRE ([…], time 7 day): 0.5 mg/dL
Ca ([…], time 7 day): 11.4 mg/dL
DBIL ([…], time 7 day): 0.016 mg/dL
GLC ([…], time 7 day): 181.2 mg/dL
IP ([…], time 7 day): 9 mg/dL
K ([…], time 7 day): 5.2 meq/L
LDH ([…], time 7 day): 149.4 IU/L
Na ([…], time 7 day): 141.6 meq/L
PL ([…], time 7 day): 175 mg/dL
RALB ([…], time 7 day): 4 g/dL
TBIL ([…], time 7 day): 0.3 mg/dL
TC ([…], time 7 day): 89.2 mg/dL
TG ([…], time 7 day): 140.8 mg/dL
TP ([…], time 7 day): 5.9 g/dL
gamma-GTP ([…], time 7 day): 1.4 IU/L
ALP ([…], time 14 day): 864.8 IU/L
ALT ([…], time 14 day): 33.4 IU/L
AST ([…], time 14 day): 57.2 IU/L
BUN ([…], time 14 day): 19 mg/dL
CRE ([…], time 14 day): 0.5 mg/dL
Ca ([…], time 14 day): 10.8 mg/dL
DBIL ([…], time 14 day): 0.014 mg/dL
GLC ([…], time 14 day): 189.8 mg/dL
IP ([…], time 14 day): 8 mg/dL
K ([…], time 14 day): 4.9 meq/L
LDH ([…], time 14 day): 96.8 IU/L
Na ([…], time 14 day): 139.8 meq/L
PL ([…], time 14 day): 163.6 mg/dL
RALB ([…], time 14 day): 4.1 g/dL
TBIL ([…], time 14 day): 0.3 mg/dL
TC ([…], time 14 day): 71.8 mg/dL
TG ([…], time 14 day): 200.4 mg/dL
TP ([…], time 14 day): 6.3 g/dL
gamma-GTP ([…], time 14 day): 0.8 IU/L
ALP ([…], time 28 day): 618.8 IU/L
ALT ([…], time 28 day): 34.6 IU/L
AST ([…], time 28 day): 62 IU/L
BUN ([…], time 28 day): 20.4 mg/dL
CRE ([…], time 28 day): 0.6 mg/dL
Ca ([…], time 28 day): 10.7 mg/dL
DBIL ([…], time 28 day): 0 mg/dL
GLC ([…], time 28 day): 191.4 mg/dL
IP ([…], time 28 day): 6.7 mg/dL
K ([…], time 28 day): 4.5 meq/L
LDH ([…], time 28 day): 135.2 IU/L
Na ([…], time 28 day): 139.4 meq/L
PL ([…], time 28 day): 170.8 mg/dL
RALB ([…], time 28 day): 4.1 g/dL
TBIL ([…], time 28 day): 0.3 mg/dL
TC ([…], time 28 day): 87.4 mg/dL
TG ([…], time 28 day): 186.2 mg/dL
TP ([…], time 28 day): 6.5 g/dL
